Source: DBAASP
≈ marks a conversion by molar mass, not a printed value. Where “and” joins values, the source holds several entries; their conditions need not be identical. Equal values may be shown once.

Assays:
Experiment in all cases: ≥ marks a high value that may be exact or a test limit, other limits are often not marked, values filed in µg/mL are converted to µM
[1] = system: Xanthomonas vesicatoria DSM 50861
[2] = system: Clavibacter michiganensis subsp. michiganensis DSM 46294
Alternaria alternata = system: Alternaria alternata
Cladosporium herbarum = system: Cladosporium herbarum
[3] = system: Pectobacterium carotovorum subsp. carotovorum DSM 30168
[4] = system: Pseudomonas syringae pv. syringae DSM 10604
Botrytis cinerea = system: Botrytis cinerea
[5] = system: Pseudomonas syringae pv. tomato DC3000
[6] = system: Pseudomonas corrugata DSM 7228
[7] = system: Staphylococcus aureus II ATCC 6538P
[8] = system: Escherichia coli ATCC 25922
[9] = system: Enterobacter cloacae ATCC 49141
[10] = system: Pseudomonas aeruginosa ATCC 27853
[11] = system: Acinetobacter baumannii ATCC 19606
[12] = system: Candida albicans ATCC 10231
Escherichia coli D21 = system: Escherichia coli D21
[13] = system: Pseudomonas aeruginosa ATCC 13388
[14] = system: Salmonella enterica subsp. enterica serovar Typhimurium ATCC 14028
[15] = system: Staphylococcus aureus ATCC 6538
[16] = system: Klebsiella pneumoniae ATCC 10031
[17] = system: Escherichia coli ATCC 11219
[18] = system: Staphylococcus aureus ATCC 25923
[19] = system: Escherichia coli DSM 1103
[20] = system: Pseudomonas aeruginosa DSM 1128
[21] = system: Klebsiella pneumoniae DSM 681
[22] = system: Streptococcus pneumoniae DSM 11865
[23] = system: Staphylococcus aureus 90857
[24] = system: Saccharomyces cerevisiae ATCC 8530
[25] = system: Pseudomonas putida NCIM 2102
Escherichia coli W160-37 = system: Escherichia coli W160-37
[26] = system: Staphylococcus aureus ATCC 8530
[27] = system: Staphylococcus aureus ATCC 15752
[28] = system: Cryptococcus neoformans ATCC 34881
[29] = system: Salmonella typhimurium KCTC 2370
[30] = system: Micrococcus luteus ATCC 10240
[31] = system: Saccharomyces cerevisiae ATCC 44774
[32] = system: Escherichia coli ATCC 27325
[33] = system: Enterococcus faecalis ATCC 29212
[34] = system: Bacillus subtilis KCTC 3038

An MIC [1] of 29.2 µM (≈ 40 µg/mL), an MIC [2] of 29.2 µM (≈ 40 µg/mL) and an MIC (Alternaria alternata) of at least 73.1 µM were found for `CC[C@H](C)[C@H](NC(=O)[C@H](C)NC(=O)[C@H](CCCCN)NC(=O)[C@H](CCCCN)NC(=O)[C@H](CC(C)C)NC(=O)[C@H](Cc1ccccc1)NC(=O)[C@H](Cc1cnc[nH]1)NC(=O)[C@H](C)NC(=O)[C@H](CC(C)C)NC(=O)[C@H](C)N)C(=O)N[C@@H](CCCCN)C(=O)N[C@@H](CCCCN)C(N)=O` [ALAHFLKKAIKK] in this work. The MIC (Cladosporium herbarum) was at least 73.1 µM, the MIC [3] was 29.2 µM (≈ 40 µg/mL) and the MIC [4] was 3.66 µM (≈ 5 µg/mL). The MIC (Botrytis cinerea) was at least 73.1 µM, the MIC [5] was 7.31 µM (≈ 9.99 µg/mL) and the MIC [6] was 14.6 µM (≈ 20 µg/mL).
An MIC [7] of at least 100 µM, an MIC [8] of 100 µM (≈ 188 µg/mL) and an MIC [9] of at least 100 µM were found for `CC(C)C[C@H](NC(=O)[C@H](Cc1cnc[nH]1)NC(=O)[C@H](CCCN=C(N)N)NC(=O)[C@H](CC(C)C)NC(=O)[C@H](CC(C)C)NC(=O)[C@H](Cc1cnc[nH]1)NC(=O)[C@H](CCCN=C(N)N)NC(=O)[C@H](CC(C)C)NC(=O)[C@H](CC(C)C)NC(=O)[C@H](Cc1cnc[nH]1)NC(=O)[C@H](CCCN=C(N)N)NC(=O)[C@H](CC(C)C)NC(=O)[C@H](C)NC(=O)[C@H](CC(=O)O)NC(=O)[C@@H](N)CC(=O)O)C(=O)O` [DDALRHLLRHLLRHL] in this work. The MIC [10] was 100 µM (≈ 188 µg/mL), the MIC [11] was over 100 µM and the MIC [12] was 25 µM and > 12.5 µM. The MIC (Escherichia coli D21) was at least 100 µM.
An MIC [13] of 20 µM (≈ 27.7 µg/mL), an MIC [14] of 20 µM (≈ 27.7 µg/mL) and an MIC [15] of 10 µM (≈ 13.9 µg/mL) were found for `CC[C@H](C)[C@H](NC(=O)CN)C(=O)N[C@@H](Cc1cnc[nH]1)C(=O)N[C@@H](CC(=O)O)C(=O)N[C@H](C(=O)N[C@@H](CC(C)C)C(=O)N[C@@H](CCCCN)C(=O)N[C@@H](Cc1ccc(O)cc1)C(=O)NCC(=O)N[C@@H](CCCCN)C(=O)N[C@@H](CCCN=C(N)N)C(=O)N[C@@H](CO)C(N)=O)[C@@H](C)CC` [GIHDILKYGKRS] in this work. For the same molecule, the MIC [16] was 10 µM (≈ 13.9 µg/mL) and the MIC [17] was 10 µM (≈ 13.9 µg/mL).
An MIC [18] of over 157 µM, an MIC [19] of at least 157 µM and an MIC [20] of at least 157 µM were found for `CC(C)C[C@H](NC(=O)[C@@H](NC(=O)[C@H](C)NC(=O)[C@H](C)NC(=O)[C@H](CCCN=C(N)N)NC(=O)CNC(=O)CNC(=O)[C@H](CCCN=C(N)N)NC(=O)[C@@H](NC(=O)[C@H](CCCN=C(N)N)NC(=O)[C@H](C)NC(=O)[C@H](Cc1ccc(O)cc1)NC(=O)[C@H](Cc1ccc(O)cc1)NC(=O)[C@H](CCCCN)NC(=O)[C@H](CCC(N)=O)NC(=O)[C@@H](N)CC(C)C)C(C)C)C(C)C)C(=O)N[C@@H](CO)C(=O)O` [LQKYYARVRGGRAAVLS] in this work. It also gave an MIC [21] of at least 157 µM and an MIC [22] of at least 157 µM.
An MIC [1] of 0.0639 µM (≈ 0.0999 µg/mL), an MIC [2] of 1.6 µM (≈ 2.5 µg/mL) and an MIC [23] of 6.25 µM (≈ 9.78 µg/mL) were found for `CC(C)C[C@H](NC(=O)[C@H](CC(C)C)NC(=O)[C@H](CCCN=C(N)N)NC(=O)[C@H](CCCCN)NC(=O)[C@H](CC(C)C)NC(=O)[C@H](CC(C)C)NC(=O)[C@H](CCCCN)NC(=O)[C@H](CC(C)C)NC(=O)[C@H](CCCN=C(N)N)NC(=O)[C@H](CCCCN)NC(=O)[C@H](CCCCN)NC(=O)[C@@H](N)CCCN=C(N)N)C(N)=O` [RKKRLKLLKRLL] in this work. It also gave an MIC [3] of 6.39 µM (≈ 9.99 µg/mL), an MIC [4] of 0.0639 µM (≈ 0.0999 µg/mL) and an MIC [5] of 6.39 µM (≈ 9.99 µg/mL). For the same molecule, the MIC [6] was 0.0639 µM (≈ 0.0999 µg/mL).
An MIC [24] of at least 80.2 µM, an MIC [25] of at least 48.1 µM and an MIC (Escherichia coli W160-37) of at least 48.1 µM were found for `CC[C@H](C)[C@@H]1NC(=O)[C@@H]2CCCN2C(=O)[C@H](CC(C)C)NC(=O)[C@@H]2CCCN2C(=O)[C@H]([C@@H](C)CC)NC(=O)[C@H](C)NC(=O)[C@H](Cc2ccc(O)cc2)NC(=O)[C@@H](NC(=O)[C@@H](NC(=O)[C@@H](N)CCCN=C(N)N)C(C)C)CSSC[C@@H](C(N)=O)NC1=O` [RVCYAIPLPIC] in this work. The MIC [26] was at least 40.1 µM.
An MIC [27] of at least 35.7 µM, an MIC [10] of over 35.7 µM and an MIC [28] of at least 35.7 µM were found for `CC(C)[C@H](NC(=O)[C@H](CCCCN)NC(=O)[C@H](CCC(=O)O)NC(=O)[C@H](CCCCN)NC(=O)[C@@H](NC(=O)[C@@H](NC(=O)[C@H](CCC(N)=O)NC(=O)[C@@H](NC(=O)[C@@H](NC(=O)[C@@H]1CCCN1C(=O)[C@H](CCCN=C(N)N)NC(=O)[C@@H](NC(=O)[C@@H](NC(=O)[C@@H](N)CCCN=C(N)N)C(C)C)C(C)C)C(C)C)C(C)C)C(C)C)C(C)C)C(=O)N[C@@H](CCCN=C(N)N)C(=O)O` [RVVRPVVQVVKEKVR] in this work. For the same molecule, the MIC [29] was at least 35.7 µM, the MIC [12] was 35.7 µM (≈ 64 µg/mL) and the MIC [30] was at least 35.7 µM. The MIC [31] was at least 35.7 µM, the MIC [32] was at least 35.7 µM and the MIC [33] was over 35.7 µM. It also gave an MIC [34] of at least 35.7 µM.
